The values below come from patent US8466155B2, “Pyrimidines” (Boehringer Ingelheim International GmbH, priority 2009, dated 2013).

In general, IC50 refers to the concentration that inhibits the measured activity by half. The low end stands for greater potency, the high end for weaker potency.

The target in this assay is T1, PTK2 (Homo sapiens, UniProt Q05397).
T1 construct: purchased Invitrogen PV3832
T1 sequence (Q05397 whole entry): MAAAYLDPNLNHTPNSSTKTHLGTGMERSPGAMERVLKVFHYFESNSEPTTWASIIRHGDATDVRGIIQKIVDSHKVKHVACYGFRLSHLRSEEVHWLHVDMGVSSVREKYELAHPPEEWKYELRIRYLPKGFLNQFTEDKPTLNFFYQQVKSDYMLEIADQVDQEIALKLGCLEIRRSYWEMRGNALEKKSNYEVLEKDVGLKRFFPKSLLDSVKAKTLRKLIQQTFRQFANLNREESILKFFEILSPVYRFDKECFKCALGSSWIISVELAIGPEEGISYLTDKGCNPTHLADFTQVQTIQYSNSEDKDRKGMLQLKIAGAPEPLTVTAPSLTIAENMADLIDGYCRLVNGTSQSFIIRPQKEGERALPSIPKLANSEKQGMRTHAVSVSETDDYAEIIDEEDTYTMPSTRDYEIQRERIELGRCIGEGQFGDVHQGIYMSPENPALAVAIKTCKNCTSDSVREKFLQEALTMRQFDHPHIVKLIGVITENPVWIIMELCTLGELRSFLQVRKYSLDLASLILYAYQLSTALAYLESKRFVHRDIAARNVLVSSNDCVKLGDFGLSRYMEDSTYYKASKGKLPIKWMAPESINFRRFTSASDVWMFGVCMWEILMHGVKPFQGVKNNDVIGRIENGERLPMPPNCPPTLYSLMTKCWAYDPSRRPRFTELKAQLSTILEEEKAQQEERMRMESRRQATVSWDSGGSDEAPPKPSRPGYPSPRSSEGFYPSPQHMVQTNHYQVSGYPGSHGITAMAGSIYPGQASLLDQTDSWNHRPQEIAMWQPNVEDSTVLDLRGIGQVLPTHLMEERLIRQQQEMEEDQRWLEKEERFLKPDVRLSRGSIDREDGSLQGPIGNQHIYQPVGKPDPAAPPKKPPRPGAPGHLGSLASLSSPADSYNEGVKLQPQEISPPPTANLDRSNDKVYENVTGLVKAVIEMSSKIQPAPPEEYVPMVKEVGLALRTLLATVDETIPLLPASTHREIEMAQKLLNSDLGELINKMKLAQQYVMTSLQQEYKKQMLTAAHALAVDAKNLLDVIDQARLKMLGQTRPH
In words: PTK2 enzyme test, Assay 1 (DELFIA, PT60 antibody). Type of assay: biochemical. The settings on record: 1 h pre-incubation, 1 h kinase reaction, values without *. Here is the method: This test uses active PTK2 enzyme (Invitrogen Code PV3832) and poly-Glu-Tyr (4:1, Sigma P-0275) as the kinase substrate. The kinase activity is detected through the phosphorylation of the substrate in a DELFIA™ assay. The phosphorylated substrate is detected with the europium-labelled phosphotyrosine antibody PT60 (Perkin Elmer, No.: AD00400).
In order to determine concentration-activity curves with PTK2-inhibitors the compounds are serially diluted in 10% DMSO/H20 and 10 μL of each dilution are placed in each well of a 96-well microtitre plate (clear plate with a U-shaped base, Greiner No. 650101) (the inhibitors are tested in duplicates) and mixed with 10 μL/well of PTK2 kinase (0.01 μg/well). PTK2 kinase has been correspondingly diluted beforehand with kinase dilution buffer (20 mM TRIS/HCl pH 7.5, 0.1 mM EDTA, 0.1 mM EGTA, 0.286 mM sodium orthovanadate, 10% glycerol with the addition of freshly prepared BSA (fraction V, 1 mg/mL) and DTT (1 mM)). The test compound and the PTK2 kinase are pre-incubated for 1 h at RT and shaken at 500 revolutions per min. The reaction is started by the addition of 10 μL/well poly (Glu,Tyr) substrate (25 μg/well poly (Glu, Tyr), 0.05 μg/well biotinylated poly (Glu,Tyr) dissolved in 250 mM TRIS/HCl pH 7.5, 9 mM DTT)—the final concentration of DMSO is 2%. Then 20 μL of ATP Mix (30 mM TRIS/HCl pH 7.5, 0.02% Brij, 0.2 mM sodium orthovanadate, 10 mM magnesium acetate, 0.1 mM EGTA, 1× phosphatase inhibitor cocktail 1 (Sigma, No.: P2850), 50 μM ATP (Sigma, No.: A3377; 15 mM stock solution)) are added. After 1 h of kinase reaction (the plates are shaken at 500 rpm), the reaction is stopped by the addition of 12 μL/well 100 mM EDTA, pH 8.0 and shaken for a further 5 min at RT (500 rpm). 55 μL of the reaction mixture are transferred into a streptavidin plate (Strepta Well High Bind (transparent, 96-well) made by Roche, No.: 11989685001) and incubated for 1 h at RT (shaking at 500 rpm). Then the microtitre plate is washed three times with 200 μL/well D-PBS (Invitrogen, No. 14190). 100 μL of a solution containing DELFIA Eu-N1 Anti-Phosphotyrosine PT60 antibody (Perkin Elmer, No.: AD0040, diluted 1:2000 in DELFIA test buffer (Perkin Elmer, No.: 1244-111)) is then added and the mixture is incubated for 1 h at RT (shaking at 500 rpm). Then the plate is washed three times with 200 μL/well DELFIA washing buffer (Perkin Elmer, No.: 1244-114), 200 μL/well strengthening solution (Perkin Elmer, No.: 1244-105) are added and the mixture is incubated for 10 min at RT (shaking at 300 rpm).
The time-delayed europium fluorescence is then measured in a microtitre plate reader (VICTOR^3, Perkin Elmer). […] Wells that contain test buffer instead of enzyme are used as a control of the background kinase activity.
The IC50 values are determined from analyses of the concentration activity by iterative calculation with the aid of a sigmoid curve analysis algorithm (FIFTY, based on GraphPAD Prism Version 3.03) with a variable Hill coefficient.
As to `COc1cc(C(=O)NN2CCN(C)CC2)c(F)cc1Nc1ncc(Cl)c(O[C@@H]2CCC[C@H]2N(C)S(C)(=O)=O)n1` [Example 88, 4-{5-chloro-4-[(1R,2R)-2-(methanesulphonyl-methyl-amino)-cyclopentyloxy]-pyrimidin-2-ylamino}-2-fluoro-5-methoxy-N-(4-methyl-piperazin-1-yl)-benzamide], the IC50 was found to be 0.37 nM.
`CONC(=O)c1cc(OC)c(Nc2ncc(Cl)c(O[C@@H]3Cc4ccccc4[C@H]3N(C)S(C)(=O)=O)n2)cc1Cl` [Example 38] had an IC50 of 1 nM.
The figure for `COc1cc(C(=O)NC[C@H](O)CO)c(Cl)cc1Nc1ncc(Cl)c(O[C@@H]2Cc3ccccc3[C@H]2N(C)S(C)(=O)=O)n1` [Example 36] is 3 nM; for `COc1ccc(C(=O)NN2CCN(C)CC2)cc1Nc1ncc(C(F)(F)F)c(O[C@@H]2Cc3ccccc3[C@H]2N(C)S(C)(=O)=O)n1` [Example 80] it is 0.41 nM.
The figure for `COc1cc(C(=O)NCC2CC2)c(F)cc1Nc1ncc(Cl)c(O[C@@H]2Cc3ccccc3[C@H]2N(C)S(C)(=O)=O)n1` [Example 66] is 16 nM; for `COc1cc(NC(C)=O)ccc1Nc1ncc(C(F)(F)F)c(O[C@@H]2Cc3ccccc3[C@H]2N(C)S(C)(=O)=O)n1` [Example 94] it is 5 nM; for `COc1cc(C(=O)NC2CCN(C)CC2)c(Cl)cc1Nc1ncc(C(F)(F)F)c(O[C@@H]2CCC[C@H]2NS(=O)(=O)CCl)n1` [Example 47] it is 3 nM.
As for `COc1cc(C(=O)NCCCN(C)C)c(F)cc1Nc1ncc(C(F)(F)F)c(O[C@@H]2Cc3ccccc3[C@H]2N(C)S(C)(=O)=O)n1` [Example 8], 4 nM corresponded to half-maximal inhibition (IC50).
The figure for `COc1cc(C(=O)NC2CCN(C)CC2)c(F)cc1Nc1ncc(C(F)(F)F)c(O[C@@H]2CCC[C@H]2NS(C)(=O)=O)n1` [Example 28, 2-fluoro-4-[4-((1R,2R)-2-methanesulphonylamino-cyclopentyloxy)-5-trifluoromethyl-pyrimidin-2-ylamino]-5-methoxy-N-(1-methyl-piperidin-4-yl)-benzamide] is 2 nM; for `COc1cc(NC(=O)C2CCCN(C)C2)ccc1Nc1ncc(C(F)(F)F)c(O[C@@H]2Cc3ccccc3[C@H]2N(C)S(C)(=O)=O)n1` (some centres unmarked) [Example 92] it is 3 nM.
`COc1cc(C(=O)NC2CCN(C)CC2)ccc1Nc1ncc(C(F)(F)F)c(O[C@H]2Cc3ccccc3[C@H]2N(C)S(C)(=O)=O)n1` [Example 70]: 238 nM corresponded to half-maximal inhibition (IC50).
As for `COc1cc(C(=O)NC2CCN(C)CC2)ccc1Nc1ncc(C(F)(F)F)c(O[C@H]2Cc3ccccc3[C@@H]2N(C)S(C)(=O)=O)n1` [Example 32], the IC50 was found to be 400 nM.
Turning to `COc1cc(C(=O)NCCCN(C)C)ccc1Nc1ncc(C(F)(F)F)c(O[C@@H]2Cc3ccccc3[C@H]2N(C)S(C)(=O)=O)n1` [Example 20], the IC50 is 3 nM.
The figure for `COc1cc(C(=O)NC2CCN(C)CC2)c(Cl)cc1Nc1ncc(C(F)(F)F)c(O[C@@H]2CCC[C@H]2N(C)S(C)(=O)=O)n1` [Example 102, 2-chloro-4-{4-[(1R,2R)-2-(methanesulphonyl-methyl-amino)-cyclopentyloxy]-5-trifluoromethyl-pyrimidin-2-ylamino}-5-methoxy-N-(1-methyl-piperidin-4-yl)-benzamide] is 0.61 nM.
`COc1cc(C(=O)NCCN(C)C)c(F)cc1Nc1ncc(C(F)(F)F)c(O[C@@H]2Cc3ccccc3[C@H]2N(C)S(C)(=O)=O)n1` [Example 2] displayed an IC50 of 5 nM.
The figure for `COc1cc(C(=O)NN2CCN(C)CC2)ccc1Nc1ncc(C(F)(F)F)c(O[C@@H]2CCCC[C@H]2N(C)S(C)(=O)=O)n1` [Example 77, 4-{4-[(1R,2R)-2-(methanesulphonyl-methyl-amino)-cyclohexyloxy]-5-trifluoromethyl-pyrimidin-2-ylamino}-3-methoxy-N-(4-methyl-piperazin-1-yl)-benzamide] is 0.3 nM; for `COc1cc(C(=O)NCCN2CCN(C)CC2)c(F)cc1Nc1ncc(Cl)c(O[C@@H]2Cc3ccccc3[C@H]2N(C)S(C)(=O)=O)n1` [Example 57] it is 2 nM.
For the compound `COc1cc(C(=O)N[C@H]2CC[C@H](N3CCN(CC4CC4)CC3)CC2)c(F)cc1Nc1ncc(Cl)c(O[C@@H]2Cc3ccccc3[C@H]2N(C)S(C)(=O)=O)n1` [Example 58], the IC50 is 6 nM.
`COc1cc(C(=O)NCCn2ccnc2C)c(F)cc1Nc1ncc(Cl)c(O[C@@H]2Cc3ccccc3[C@H]2N(C)S(C)(=O)=O)n1` [Example 52] registered an IC50 of 6 nM.
On to `COc1cc(C(=O)NC2CCN(C)CC2)c(F)cc1Nc1ncc(C(F)(F)F)c(O[C@@H]2CCC[C@H]2NS(=O)(=O)CCl)n1` [Example 45], for which half-maximal inhibition (IC50) required 5 nM.
On to `COc1cc(C(=O)NCCN(C)C)c(Cl)cc1Nc1ncc(C(F)(F)F)c(O[C@@H]2CCC[C@H]2NS(C)(=O)=O)n1` [Example 78], for which 0.37 nM corresponded to half-maximal inhibition (IC50).
`COc1cc(C(=O)NCC(C)(C)C)c(F)cc1Nc1ncc(C(F)(F)F)c(O[C@@H]2Cc3ccccc3[C@H]2N(C)S(C)(=O)=O)n1` [Example 3] showed an IC50 of 3 nM.
`COc1cc(C(=O)NC2CCN(C)CC2)ccc1Nc1ncc(C(F)(F)F)c(O[C@@H]2Cc3ccccc3[C@@H]2NC(C)=O)n1` [Example 72] came in with an IC50 of 174 nM.
The figure for `COc1ccc(C(=O)NCCCN(C)C)cc1Nc1ncc(C(F)(F)F)c(O[C@@H]2Cc3ccccc3[C@H]2N(C)S(C)(=O)=O)n1` [Example 82] is 0.38 nM; for `COc1cc(C(=O)NCC2CC2)c(F)cc1Nc1ncc(C(F)(F)F)c(O[C@@H]2Cc3ccccc3[C@H]2N(C)S(C)(=O)=O)n1` [Example 9] it is 19 nM; for `COc1cc(C(=O)NCCN(C)C)c(F)cc1Nc1ncc(C(F)(F)F)c(O[C@@H]2CCCC[C@H]2NS(C)(=O)=O)n1` [Example 106] it is 1 nM.
In turn, `COc1cc(C(=O)NCCn2ccnc2C)ccc1Nc1ncc(C(F)(F)F)c(O[C@@H]2Cc3ccccc3[C@H]2N(C)S(C)(=O)=O)n1` [Example 13] registered an IC50 of 4 nM.
Consider `COc1cc(C(=O)NCCN2CCN(C)CC2)c(Cl)cc1Nc1ncc(Cl)c(O[C@@H]2Cc3ccccc3[C@H]2N(C)S(C)(=O)=O)n1` [Example 34], for which the IC50 turned out to be 2 nM.
For `CONC(=O)c1cc(OC)c(Nc2ncc(Cl)c(O[C@@H]3Cc4ccccc4[C@H]3N(C)S(C)(=O)=O)n2)cc1F` [Example 43], the IC50 is 22 nM.
The compound `COc1cc(C(=O)NC[C@H](O)CO)ccc1Nc1ncc(C(F)(F)F)c(O[C@@H]2Cc3ccccc3[C@H]2N(C)S(C)(=O)=O)n1` [Example 49] displayed an IC50 of 5 nM.
The value for `COc1cc(C(=O)NC2CCN(C)CC2)c(Cl)cc1Nc1ncc(C(F)(F)F)c(O[C@@H]2CCCC[C@H]2N(C)S(C)(=O)=O)n1` [Example 74, 2-chloro-4-{4-[(1R,2R)-2-(methanesulphonyl-methyl-amino)-cyclohexyloxy]-5-trifluoromethyl-pyrimidin-2-ylamino}-5-methoxy-N-(1-methyl-piperidin-4-yl)-benzamide] was 0.42 nM; that for `COc1cc(C(=O)NCCn2ccnc2C)c(F)cc1Nc1ncc(C(F)(F)F)c(O[C@@H]2Cc3ccccc3[C@H]2N(C)S(C)(=O)=O)n1` [Example 4] was 5 nM.
